Experimental data taken from patent US9458203B2, “Integrin-blocking polypeptides and uses thereof” (priority 2011, dated 2016).
Like-named read-outs stand apart in the source and are kept apart here. Ends that are not written are not given here.

Experiments:
Settings in all cases: mouse, in vivo
melanoma B16F10 = assay: transplanted melanoma B16F10 in C57BL/6 black mice
Method: Hypodermically injecting polypeptides and other drugs into the left axillary region of mice from the experimental groups respectively while administering only equal quantity of physiological saline to the mice from the negative control group. The total medication period was 14 days, during which cyclophosphamide was administered once every other day, taxol once every three days, low-dose polypeptide twice a day and all other drugs once a day.

[1] = test system: human cervical cancer HeLa; format: in vivo, nude mice
Method: (§2) Taking a certain amount of vigorously growing tumor tissue, grinding the tumor tissue under sterile conditions and preparing cell suspension at the concentration of 1×10^7 cells/ml; then hypodermicaly inoculating 0.1 ml of the cell suspension into the right axillary region of nude mice. Keeping measuring the diameter of the transplanted tumor with a vernier caliper, and randomly dividing the mice into groups when the volume of the tumor reached 100-200 mm^3. […] Measuring the tumor diameter once every other day and recording the body weight of mice simultaneously. Intravenously injecting polypeptides to mice from test groups while administering equal quantity of physiological saline to mice from the negative control group. The total medication period was 14 days. Avastin was adopted to set up a positive control group; it was administered through the tail vein once every three days while all other drugs were administered through the tail vein once a day. Leaving mice for a one-week rest after 14 days' medication, then (21 days after medication) killing the mice, surgically dissecting the tumors and measuring the weight of tumors. The tumor volume (TV) was calculated in accordance with the following formula: TV=½×a×b^2

[2] = test system: human prostate cancer DU-145; format: in vivo, nude mice
Method: as §2

[3] = format: in vivo, nude mice
Description: (§1) The total medication period was 14 days.

[4] = test system: human esophageal cancer Ec109; format: in vivo, nude mice
Description: as §1

[5] = test system: human testicular cancer 5637; format: in vivo, nude mice
Description: as §1

sarcoma HT-1080 = format: in vivo, nude mice
Description: as §1

[6] = test system: human bladder cancer HT1376; assay: heterotransplanted human bladder cancer HT1376 in nude mice; format: in vivo
Description: as §1

[7] = test system: human pancreatic cancer SW-1990; assay: heterotransplanted human pancreatic cancer SW-1990 in nude mice; format: in vivo
Description: as §1

human colon cancer HT-29 = format: in vivo, nude mice
Method: as §2

[8] = test system: human thyroid cancer SW-579; format: in vivo, nude mice
Method: as §2

human renal cancer A498 = format: in vivo, nude mice
Method: as §2

[9] = test system: human ovarian cancer SK-OV-3; format: in vivo, nude mice
Method: as §2

[10] = test system: human laryngeal cancer Hep-2; assay: heterotransplanted human laryngeal cancer Hep-2 in nude mice; format: in vivo
Description: as §1

[11] = test system: human breast cancer MDA-MB-231
Method: (§3) Taking a certain amount of vigorously growing tumor tissue, grinding the tumor tissue under sterile conditions and preparing cell suspension at the concentration of 1×10^7 cells/ml; then hypodermicaly inoculating 0.1 ml of the cell suspension into the right axillary region of nude mice. Keeping measuring the diameter of the transplanted tumor with a vernier caliper, and randomly dividing the mice into groups when the volume of the tumor reached 100-200 mm^3. Observing the dynamic effect of integrin-blocking polypeptides on inhibiting the growth of the tumor by means of documenting the change of tumor diameters. Measuring the tumor diameter once every other day and recording the body weight of mice simultaneously. Intravenously injecting polypeptides to mice from test groups while administering equal quantity of physiological saline to mice from the negative control group. The total medication period was 14 days. Avastin was adopted to set up a positive control group; it was administered through the tail vein once every three days while all other drugs were administered through the tail vein once a day. Leaving mice for a one-week rest after 14 days' medication, then (21 days after medication) killing the mice, surgically dissecting the tumors and measuring the weight of tumors. The tumor volume (TV) was calculated in accordance with the following formula: TV=½×a×b^2
wherein a, b refer to the length and width of the tumor respectively.
The relative tumor volume (RTV) can be calculated in accordance with the results of measurement, using the formula: RTV=Vt/V0, wherein V0 refers to the initial tumor volume measured on the date starting medication (namely d0) while Vt the tumor volume obtained through every measurement. The anti-tumor activity was evaluated by relative proliferation rate T/C (%), which was calculated in accordance with the following formula:
wherein TRTV refers to the RTV of experimental groups; CRTV refers to the RTV of the negative control group.

[12] = test system: human gastric cancer MGC-803
Description: Keeping measuring the diameter of the transplanted tumor with a vernier caliper, and randomly dividing the mice into groups when the volume of the tumor reached 100-200 mm^3. Observing the dynamic effect of integrin-blocking polypeptides on inhibiting the growth of the tumor by means of documenting the change of tumor diameters. Measuring the tumor diameter once every other day and recording the body weight of mice simultaneously. Intravenously injecting polypeptides to mice from test groups while administering equal quantity of physiological saline to mice from the negative control group. The total medication period was 14 days. Avastin was adopted to set up a positive control group; it was administered through the tail vein once every three days while all other drugs were administered through the tail vein once a day. Leaving mice for a one-week rest after 14 days' medication, then (21 days after medication) killing the mice, surgically dissecting the tumors and measuring the weight of tumors. The tumor volume (TV) was calculated in accordance with the following formula: TV=½×a×b^2

human lung cancer H460 = test system: human lung cancer H460
Method: as §3
(§4) Taxol used in the positive control group was administered once every 3 days through tail vein injection, while drugs of all other groups were administered on daily basis through tail vein injection.

[13] = test system: human liver cancer SMMC-7721
Method: as §3, §4

[14] = test system: human endometrial cancer HHUA
Method: as §3, §4

[15] = test system: human gallbladder cancer GBC-SD
Method: as §3
Avastin used in the positive control group was administered once every 2 days through tail vein injection, while drugs of all other groups were administered on daily basis through tail vein injection.

human brain tumor SF763 = test system: human brain tumor SF763
Method: as §3, §4

[16] = test system: human rectal cancer Colo 320
Method: as §3, §4

In the case of “FQPVLHLVALNSPLSGGMRGIRGADFQCFQQARAVGLAGTFRAGGGGRGD [polypeptide III]”, the “body weight of animals, in words” value (melanoma B16F10) was “no severe weight change”, the “toxic and side effects, in words” value (melanoma B16F10) was “no severe weight change or obvious toxic and side effects” and the “body weight of animals, in words” value [1] was “no significant change in body weight”. The “toxic and side effects, in words” value [1] was “no obvious toxic and side effects”, the “body weight of animals, in words” value [2] was “no significant change in body weight” and the “toxic and side effects, in words” value [2] was “no obvious toxic and side effects”. For the same sequence, the “body weight of animals, in words” value [3] was “no significant change in body weight”, the “body weight of animals, in words” value [4] was “no significant change in body weight” and the “toxic and side effects, in words” value [4] was “no obvious toxic and side effects”. For the same sequence, the “toxic and side effects, in words” value [5] was “no obvious toxic and side effects”, the “body weight of animals, in words” value (sarcoma HT-1080) was “no significant change in body weight” and the “toxic and side effects, in words” value (sarcoma HT-1080) was “no obvious toxic and side effects”. It also gave a final weight (sarcoma HT-1080; 0.1875 mg/kg) of 22.92 ± 0.57 g, a final weight (sarcoma HT-1080; 0.375 mg/kg) of 23.18 ± 0.57 g and a final weight (sarcoma HT-1080; 0.75 mg/kg) of 23.07 ± 0.56 g. For the same sequence, the “body weight of animals, in words” value [6] was “no significant change in body weight”, the “toxic and side effects, in words” value [6] was “no obvious toxic and side effects” and the “body weight of animals, in words” value [7] was “no significant change in body weight”. The “toxic and side effects, in words” value [7] was “no obvious toxic and side effects”, the “body weight of animals, in words” value (human colon cancer HT-29) was “no significant change in body weight” and the “toxic and side effects, in words” value (human colon cancer HT-29) was “no obvious toxic and side effects”. For the same sequence, the “body weight of animals, in words” value [8] was “no significant change in body weight”, the “toxic and side effects, in words” value [8] was “no obvious toxic and side effects” and the “body weight of animals, in words” value (human renal cancer A498) was “no significant change in body weight”. For the same sequence, the “toxic and side effects, in words” value (human renal cancer A498) was “no obvious toxic and side effects”, the “body weight of animals, in words” value [9] was “no significant change in body weight” and the “toxic and side effects, in words” value [9] was “no obvious toxic and side effects”. It also gave a final weight ([9]; 0.1875 mg/kg) of 22.83 ± 0.50 g, a final weight ([9]; 0.375 mg/kg) of 22.92 ± 0.70 g and a final weight ([9]; 0.75 mg/kg) of 22.95 ± 0.64 g. The “body weight of animals, in words” value [10] was “no significant change in body weight”, the “toxic and side effects, in words” value [10] was “no obvious toxic and side effects” and the final weight ([10]; 0.1875 mg/kg) was 22.94 ± 0.46 g. For the same sequence, the final weight ([10]; 0.375 mg/kg) was 22.96 ± 0.57 g, the final weight ([10]; 0.75 mg/kg) was 23.18 ± 0.51 g and the “body weight of animals, in words” value [11] was “no significant change in body weight”. The “toxic and side effects, in words” value [11] was “no obvious toxic and side effects”, the “body weight of animals, in words” value [12] was “no significant change in body weight” and the “toxic and side effects, in words” value [12] was “no obvious toxic and side effects”. For the same sequence, the “body weight of animals, in words” value (human lung cancer H460) was “no significant change in body weight”, the “toxic and side effects, in words” value (human lung cancer H460) was “no obvious toxic and side effects” and the “body weight of animals, in words” value [13] was “no significant change in body weight”. The “toxic and side effects, in words” value [13] was “no obvious toxic and side effects”, the “body weight of animals, in words” value [14] was “no significant change in body weight” and the “toxic and side effects, in words” value [14] was “no obvious toxic and side effects”. For the same sequence, the “body weight of animals, in words” value [15] was “no significant change in body weight”, the “toxic and side effects, in words” value [15] was “no obvious toxic and side effects” and the “body weight of animals, in words” value (human brain tumor SF763) was “no significant change in body weight”. For the same sequence, the “toxic and side effects, in words” value (human brain tumor SF763) was “no obvious toxic and side effects”, the final weight (human brain tumor SF763; 0.1875 mg/kg) was 23.31 ± 0.57 g and the final weight (human brain tumor SF763; 0.375 mg/kg) was 23.37 ± 0.56 g. The final weight (human brain tumor SF763; 0.75 mg/kg) was 23.09 ± 0.53 g, the “body weight of animals, in words” value [16] was “no significant change in body weight” and the “toxic and side effects, in words” value [16] was “no obvious toxic and side effects”. The final weight ([16]; 0.1875 mg/kg) was 22.81 ± 0.60 g, the final weight ([16]; 0.375 mg/kg) was 22.93 ± 0.56 g and the final weight ([16]; 0.75 mg/kg) was 23.14 ± 0.48 g.
With “RGDGGGGFQPVLHLVALNSPLSGGMRGIRGADFQCFQQARAVGLAGTFRA [polypeptide II]” the “body weight of animals, in words” value (melanoma B16F10) was “no significant change in body weight”, the “toxic and side effects, in words” value (melanoma B16F10) was “no obvious toxic and side effects” and the “body weight of animals, in words” value [1] was “no significant change in body weight”. For the same sequence, the “toxic and side effects, in words” value [1] was “no obvious toxic and side effects”, the “body weight of animals, in words” value [2] was “no significant change in body weight” and the “toxic and side effects, in words” value [2] was “no obvious toxic and side effects”. For the same sequence, the “body weight of animals, in words” value [3] was “no significant change in body weight”, the “body weight of animals, in words” value [4] was “no significant change in body weight” and the “toxic and side effects, in words” value [4] was “no obvious toxic and side effects”. The “toxic and side effects, in words” value [5] was “no obvious toxic and side effects”, the “body weight of animals, in words” value (sarcoma HT-1080) was “no significant change in body weight” and the “toxic and side effects, in words” value (sarcoma HT-1080) was “no obvious toxic and side effects”. It also gave a final weight (sarcoma HT-1080; 0.75 mg/kg) of 22.93 ± 0.46 g, a final weight (sarcoma HT-1080; 1.5 mg/kg) of 22.95 ± 0.46 g and a final weight (sarcoma HT-1080; 3 mg/kg) of 23.04 ± 0.55 g. The “body weight of animals, in words” value [6] was “no significant change in body weight”, the “toxic and side effects, in words” value [6] was “no obvious toxic and side effects” and the “body weight of animals, in words” value [7] was “no significant change in body weight”. For the same sequence, the “toxic and side effects, in words” value [7] was “no obvious toxic and side effects”, the “body weight of animals, in words” value (human colon cancer HT-29) was “no significant change in body weight” and the “toxic and side effects, in words” value (human colon cancer HT-29) was “no obvious toxic and side effects”. For the same sequence, the “body weight of animals, in words” value [8] was “no significant change in body weight”, the “toxic and side effects, in words” value [8] was “no obvious toxic and side effects” and the “body weight of animals, in words” value (human renal cancer A498) was “no significant change in body weight”. For the same sequence, the “toxic and side effects, in words” value (human renal cancer A498) was “no obvious toxic and side effects”, the “body weight of animals, in words” value [9] was “no significant change in body weight” and the “toxic and side effects, in words” value [9] was “no obvious toxic and side effects”. It also gave a final weight ([9]; 0.75 mg/kg) of 23.07 ± 0.50 g, a final weight ([9]; 1.5 mg/kg) of 23.32 ± 0.50 g and a final weight ([9]; 3 mg/kg) of 22.97 ± 0.65 g. The “body weight of animals, in words” value [10] was “no significant change in body weight”, the “toxic and side effects, in words” value [10] was “no obvious toxic and side effects” and the final weight ([10]; 0.75 mg/kg) was 22.88 ± 0.70 g. The final weight ([10]; 1.5 mg/kg) was 22.98 ± 0.60 g, the final weight ([10]; 3 mg/kg) was 22.66 ± 0.61 g and the “body weight of animals, in words” value [11] was “no significant change in body weight”. The “toxic and side effects, in words” value [11] was “no obvious toxic and side effects”, the “body weight of animals, in words” value [12] was “no significant change in body weight” and the “toxic and side effects, in words” value [12] was “no obvious toxic and side effects”. The “body weight of animals, in words” value (human lung cancer H460) was “no significant change in body weight”, the “toxic and side effects, in words” value (human lung cancer H460) was “no obvious toxic and side effects” and the “body weight of animals, in words” value [13] was “no significant change in body weight”. The “toxic and side effects, in words” value [13] was “no obvious toxic and side effects”, the “body weight of animals, in words” value [14] was “no significant change in body weight” and the “toxic and side effects, in words” value [14] was “no obvious toxic and side effects”. For the same sequence, the “body weight of animals, in words” value [15] was “no significant change in body weight”, the “toxic and side effects, in words” value [15] was “no obvious toxic and side effects” and the “body weight of animals, in words” value (human brain tumor SF763) was “no significant change in body weight”. For the same sequence, the “toxic and side effects, in words” value (human brain tumor SF763) was “no obvious toxic and side effects”, the final weight (human brain tumor SF763; 0.75 mg/kg) was 22.95 ± 0.52 g and the final weight (human brain tumor SF763; 1.5 mg/kg) was 22.88 ± 0.52 g. The final weight (human brain tumor SF763; 3 mg/kg) was 23.24 ± 0.66 g, the “body weight of animals, in words” value [16] was “no significant change in body weight” and the “toxic and side effects, in words” value [16] was “no obvious toxic and side effects”. It also gave a final weight ([16]; 0.75 mg/kg) of 22.85 ± 0.61 g, a final weight ([16]; 1.5 mg/kg) of 23.10 ± 0.61 g and a final weight ([16]; 3 mg/kg) of 22.99 ± 0.37 g.
